Data reported in US8242118B2, “Arylsulfonamide derivatives for use as CCR3 antagonists in the treatment of inflammatory and immunological disorders” (Axikin Pharmaceuticals Inc., priority 2001, dated 2012).
Where a name gives a salt, the structure may show the parent alone.

Key:
Human CCR3 = biological target: T1, Human CCR3 (Homo sapiens, UniProt P51677); test: Calcium mobilization assay, eotaxin-stimulated; assay type: cell-based; conditions: human CCR3-transformed K562 cells, 10 nM eotaxin; compounds of about 40 to 90% purity; read-out: Activity grade Ca2+ (IC50 class)
T1 construct: The cloned CCR3 cDNA was constructed with pcDNA3 vector and transfected into a IC562 cell line; expressed in transfected cells
T1 sequence (P51677 1-355): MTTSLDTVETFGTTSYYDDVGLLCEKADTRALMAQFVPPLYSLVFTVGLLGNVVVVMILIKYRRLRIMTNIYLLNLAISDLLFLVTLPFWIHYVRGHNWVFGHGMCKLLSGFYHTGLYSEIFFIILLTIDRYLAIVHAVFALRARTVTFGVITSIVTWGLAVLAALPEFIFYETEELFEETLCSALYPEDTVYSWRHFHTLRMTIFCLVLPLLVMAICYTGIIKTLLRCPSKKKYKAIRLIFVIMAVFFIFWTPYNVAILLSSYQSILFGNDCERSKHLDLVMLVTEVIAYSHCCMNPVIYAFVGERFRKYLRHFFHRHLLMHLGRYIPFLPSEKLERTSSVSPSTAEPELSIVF
Method: • Human CCR3-transformed K562 cells were used. The cloned CCR3 cDNA was constructed with pcDNA3 vector and transfected into a IC562 cell line. The human CCR3-transformed K562 cells were maintained in RPMI-1640 (Cat.#22400-089, Life Technologies) supplemented with 10% FCS (Cat.#A-1115-L, Hyclone), 55 μM 2-mercaptoethanol (Cat.#21985-023, Life Technologies), 1 mM sodium pyruvate (Cat.#11360-070, Life Technologies), 100 units/ml of penicillin G and 100 μg/ml of streptomycin (Cat.#15140-122, Life Technologies), and 0.4 mg/ml of Geneticin (Cat.#10131-035, Life Technologies)(hereinafter called “culture medium”). Before the receptor binding assay, cells were pretreated with 5 mM sodium butyrate (Cat.#193-01522, Wako)-containing the culture medium (2×10^5 cells/ml) for 20-24 hours to increase the expression of CCR3. (2) Receptor Binding Assay (RBA) • Butyrate-pretreated cells, suspended in binding buffer (25 mM HEPES pH 7.6, 1 mM CaCl2, 5 mM MgCl2, 0.5% BSA, 0.1% NaN3) at a cell density of 2×10^6 cells/ml, were added into 60 μl/well in the 96-well round bottom polypropylene plate (Cat.#3365, Costar). Compounds, diluted with the binding buffer (4-times higher concentration of the final concentration), were added into 30 μl/well in the polypropylene plate. [^125I]-labeled human eotaxin (Cat.#IM290, Amersham Pharmacia Biotech), diluted with the binding buffer at the concentration of 0.4 nM (final concentration; 0.1 nM), was added into 30 μl/well in the polypropylene plate. Total 120 μl/well of binding reaction mixture (60 μl/well of cell suspension, 30 μl/well of compound solution, and 30 μl/well of [^125I]-labeled eotaxin) were incubated in the polypropylene plate for 1 hour at room temperature after the incubation, 100 μl/well of the reaction mixture was transferred to a filtration plate (Cat.#MAFB-N0B, Millipore), and washed with the washing buffer (25 mM HEPES pH 7.6, 1 mM CaCl2, 5 mM MgCl2, 0.5% BSA, 0.1% NaN3, 0.5 M NaCl) twice. The 96-well filtration plate was pretreated with 100 μl/well of 0.5% polyethylenimine (Cat.#P-3143, Sigma) for 2-4 hours at room temperature and washed with the washing buffer twice before use. The non-specific binding was determined by parallel incubation in the presence of 500 nM of non-labeled eotaxin (Cat.#23209, Genzyme Techne). The radioactivities remained on the filter were measured by liquid scintillation counter (TopCount™, Packard) after an addition of 45 μl/well of scintillant (Microscint20, Cat.#6013621, Packard). The inhibition percent at each concentration of compound was calculated, and IC50 values were determined from the inhibition curve. [Determination of IC50 Values of Compounds in Calcium Mobilization Assay] (IC50 Ca2+) (1) Cell • Human CCR3-transformed K562 cells were used. The human CCR3-transformed K562 cells were maintained in RPMI-1640 supplemented with 10% FCS, 55 μM 2-mercaptoethanol (Cat.#21985-023, Life Technologies), 1 mM sodium pyruvate, 100 units/ml of penicillin G and 100 μg/ml of streptomycin and 0.4 mg/ml of Geneticin. Before the calcium mobilization assay, cells were pretreated with 5 mM sodium butyrate-containing the culture medium (2×10^5 cells/ml) for 20-24 hours to increase the expression of CCR3. (2) Calcium Mobilization Assay • Butyrate-pretreated cells were loaded with Fluo-3AM (Cat.#F-1242, Molecular Probes) in loading buffer (Hanks' solution Cat.#05906 Nissui, 20 mM HEPES pH 7.6, 0.1% BSA, 1 mM probenecid Cat.#P-8761 Sigma, 1 μM Fluo-3AM, 0.01% pluronic F-127 Cat.#P-6866 Molecular Probes) at a cell density of 1×10^7 cells/ml. Then, cells were washed with calcium assay buffer (Hanks' solution Cat.#05906 Nissui, 20 mM HEPES pH 7.6, 0.1% BSA, 1 mM Probenecid Cat.#P-8761 Sigma). The cell suspension (3.3×10^6 cells/ml) was added into 60 μl/well in the 96-well clear bottom black plate (Cat.#3904, Costar). Compounds, diluted (5-times concentration of the final concentration) with the calcium assay buffer, were added into 20 μl/well in the plate 10 minutes before assay. […]

Cc1cc(C)cc(Oc2ccc(S(=O)(=O)N3CCNCC3)cc2S(=O)(=O)N2CCNCC2)c1.Cl.Cl
melting point: 214 to 220 °C

Cc1cccc(Oc2ccc([N+](=O)[O-])cc2S(=O)(=O)N2CCNCC2)c1 [Example 1-24]
IC50 (Human CCR3): < 1 µM

COC(=O)c1cncc(Oc2ccc([N+](=O)[O-])cc2S(=O)(=O)N2CCNCC2)c1 [Example 1-53]
IC50 (Human CCR3): 1 to 10 µM

NCCNS(=O)(=O)c1cc([N+](=O)[O-])ccc1Oc1cc(Cl)cc(Cl)c1 [Example 1-95]
IC50 (Human CCR3): < 1 µM

O=[N+]([O-])c1ccc(Oc2cc(Cl)cc(Cl)c2)c(S(=O)(=O)NCC2CCNCC2)c1 [Example 1-96]
IC50 (Human CCR3): < 1 µM

CN(C)CC(C)(C)CNS(=O)(=O)c1cc([N+](=O)[O-])ccc1Sc1cc(Cl)cc(Cl)c1 [Example 2-4]
IC50 (Human CCR3): < 1 µM

O=[N+]([O-])c1ccc(Sc2ccccc2)c(S(=O)(=O)N2CCNCC2)c1 [Example 2-14]
IC50 (Human CCR3): 1 to 10 µM

O=[N+]([O-])c1ccc(Nc2cccc(Cl)c2)c(S(=O)(=O)N2CCNCC2)c1 [Example 3-7]
IC50 (Human CCR3): < 1 µM

O=[N+]([O-])c1ccc(Nc2ccc(Cl)cc2)c(S(=O)(=O)N2CCNCC2)c1 [Example 3-8]
IC50 (Human CCR3): < 1 µM

O=[N+]([O-])c1ccc(Nc2ccccc2F)c(S(=O)(=O)N2CCNCC2)c1 [Example 3-9]
IC50 (Human CCR3): < 1 µM

O=[N+]([O-])c1ccc(Nc2cccc(F)c2)c(S(=O)(=O)N2CCNCC2)c1 [Example 3-10]
IC50 (Human CCR3): < 1 µM

O=[N+]([O-])c1ccc(Nc2ccc(F)cc2)c(S(=O)(=O)N2CCNCC2)c1 [Example 3-11]
IC50 (Human CCR3): < 1 µM

COc1ccccc1Nc1ccc([N+](=O)[O-])cc1S(=O)(=O)N1CCNCC1 [Example 3-12]
IC50 (Human CCR3): < 1 µM

CN(C)CCCCNS(=O)(=O)c1cc([N+](=O)[O-])ccc1Oc1cc(Cl)cc(Cl)c1 [Example 4-39]
IC50 (Human CCR3): < 1 µM

CC1CCCCN1CCCNS(=O)(=O)c1cc([N+](=O)[O-])ccc1Oc1cc(Cl)cc(Cl)c1 (stereo not shown) [Example 4-40]
IC50 (Human CCR3): < 1 µM

O=[N+]([O-])c1ccc(Oc2cc(Cl)cc(Cl)c2)c(S(=O)(=O)NCCN2CCCCC2)c1 [Example 4-41]
IC50 (Human CCR3): < 1 µM

Cc1cc(C)cc(Oc2cc(Cl)c(C#N)cc2S(=O)(=O)N2CCNCC2)c1 [Example 12-2]
IC50 (Human CCR3): 1 to 10 µM

N#Cc1cc(S(=O)(=O)N2CCNCC2)c(Oc2cc(Cl)cc(Cl)c2)cc1Cl [Example 12-3]
IC50 (Human CCR3): 1 to 10 µM

N#Cc1ccc(Oc2cc(Cl)cc(Cl)c2)c(S(=O)(=O)N2CC[C@H](N)C2)c1 [Example 13-1, 1-{5-cyano-2-(3,5-dichlorophenoxy)phenylsulfonyl}-(3S)-aminopyrrolidine hydrochloride]
IC50 (Human CCR3): < 1 µM

N#Cc1ccc(Oc2cc(Cl)cc(Cl)c2)c(S(=O)(=O)NCCN)c1 [Example 13-8]
IC50 (Human CCR3): < 1 µM

Cc1cc(C)cc(Oc2ccc(C(=O)O)cc2S(=O)(=O)N2CCNCC2)c1 [Example 14-1, 4-(3,5-dimethylphenoxy)-3-(1-piperazinylsulfonyl)benzoic acid hydrochloride]
IC50 (Human CCR3): < 1 µM

O=C(O)c1ccc(Oc2cc(Cl)cc(Cl)c2)c(S(=O)(=O)N2CCNCC2)c1 [Example 14-3]
IC50 (Human CCR3): < 1 µM

O=C(O)c1cc(S(=O)(=O)N2CCNCC2)c(Oc2cc(Cl)cc(Cl)c2)cc1Cl [Example 14-4]
IC50 (Human CCR3): 1 to 10 µM

Cc1cc(C)cc(Oc2ccc(C(N)=O)cc2S(=O)(=O)N2CCNCC2)c1 [Example 15-1, 4-(3,5-dimethylphenoxy)-3-(1-piperazinylsulfonyl)benzamide hydrochloride]
IC50 (Human CCR3): < 1 µM

COC(=O)c1ccc(Oc2cc(C)cc(C)c2)c(S(=O)(=O)N2CCNCC2)c1 [Example 15-2, methyl 4-(3,5-dimethylphenoxy)-3-(1-piperazinylsulfonyl)benzoate hydrochloride]
IC50 (Human CCR3): < 1 µM

Cc1cc(C)cc(Oc2cc(Cl)c(C(N)=O)cc2S(=O)(=O)N2CCNCC2)c1 [Example 15-3]
IC50 (Human CCR3): 1 to 10 µM

NC(=O)c1cc(F)c(Oc2cc(Cl)cc(Cl)c2)c(S(=O)(=O)N2CCNCC2)c1 [Example 15-4]
IC50 (Human CCR3): 1 to 10 µM

Cc1cc(C)cc(Oc2ccc(CO)cc2S(=O)(=O)N2CCNCC2)c1 [Example 16-1, [4-(3,5-dimethylphenoxy)-3-(1-piperazinylsulfonyl)phenyl]methanol hydrochloride]
IC50 (Human CCR3): < 1 µM

N#Cc1ccc([S+]([O-])c2cc(Cl)cc(Cl)c2)c(S(=O)(=O)N2CCNCC2)c1 (stereo not shown) [Example 19-1, 4-[(3,5-dichlorophenyl)sulfinyl]-3-(1-piperazinylsulfonyl)benzonitrile hydrochloride]
IC50 (Human CCR3): 1 to 10 µM

CN(c1cc(Cl)cc(Cl)c1)c1ccc(C#N)cc1S(=O)(=O)N1CCNCC1 [Example 21-1, 4-[(3,5-dichlorophenyl)(methyl)amino]-3-(1-piperazinylsulfonyl)benzonitrile hydrochloride]
IC50 (Human CCR3): 1 to 10 µM

Cc1cc(C)cc(N(C)c2ccc([N+](=O)[O-])cc2S(=O)(=O)N2CCNCC2)c1 [Example 21-2]
IC50 (Human CCR3): < 1 µM

Cc1cc(C)cc(Oc2ccc(C(=O)NCCC#N)cc2S(=O)(=O)N2CCNCC2)c1 [Example 22-1, N-(2-cyanoethyl)-4-(3,5-dimethylphenoxy)-3-(1-piperazinylsulfonyl)benzamide hydrochloride]
IC50 (Human CCR3): < 1 µM

Cc1cc(C)cc(Oc2ccc(C(=O)NCCC(N)=O)cc2S(=O)(=O)N2CCNCC2)c1 [Example 22-2, N-[4-(3,5-dimethylphenoxy)-3-(1-piperazinylsulfonyl)benzoyl]-beta-alanineamide hydrochloride]
IC50 (Human CCR3): < 1 µM

Cc1cc(C)cc(Oc2ccc(-c3nnnn3CCC#N)cc2S(=O)(=O)N2CCNCC2)c1 [Example 22-3, 3-{5-[4-(3,5-dimethylphenoxy)-3-(1-piperazinylsulfonyl)phenyl]-1H-tetraazol-1-yl}propanenitrile hydrochloride]
IC50 (Human CCR3): < 1 µM

Cc1cc(C)cc(Oc2ccc(-c3nnn[nH]3)cc2S(=O)(=O)N2CCNCC2)c1 [Example 22-4, 1-{[2-(3,5-dimethylphenoxy)-5-(1H-tetraazol-5-yl)phenyl]sulfonyl}piperazine hydrochloride]
IC50 (Human CCR3): < 1 µM

Cc1cc(C)cc(Oc2cc([N+](=O)[O-])ccc2S(=O)(=O)N2CCNCC2)c1 [Example 23-1, 1-{2-(3,5-dimethylphenoxy)-4-nitrophenylsulfonyl}piperazine hydrochloride]
IC50 (Human CCR3): < 1 µM

Cc1cc(C)cc(Oc2cc(Br)cc(S(=O)(=O)N3CCNCC3)c2)c1 [Example 24-1, 1-{[3-bromo-5-(3,5-dimethylphenoxy)phenyl]sulfonyl}piperazine hydrochloride]
IC50 (Human CCR3): < 1 µM
